PubChem BioAssay AID1552 (Sanford-Burnham Center for Chemical Genomics, 2009)
The source made the active and inactive calls. How the calls were made is not given here. Residues, ends and D or L forms follow the SMILES beside them.

Biological target: Ubiquitin-conjugating enzyme E2 N (Homo sapiens) (UniProt P61088)
Assay: NMR detection of UBE2N ligand binding – biophysical, purified protein (AID 1552)
Settings: NMR binding to purified UBE2N

Sequence of Ubiquitin-conjugating enzyme E2 N (Homo sapiens) (P61088 whole entry, looked up): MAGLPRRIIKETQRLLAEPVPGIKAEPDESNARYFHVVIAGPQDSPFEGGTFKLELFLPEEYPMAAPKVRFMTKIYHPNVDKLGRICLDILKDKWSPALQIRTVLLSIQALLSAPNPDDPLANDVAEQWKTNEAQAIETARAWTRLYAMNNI

| SMILES | Kd |
| --- | --- |
| CCn1cnc2sc(C(=O)O)c(C)c2c1=O | > 4 mM (inactive) |
| O=S1(=O)CCC(NCCO)C1 (centres undefined) | > 4 mM (inactive) |
| CN(C)c1nc(N)nc(Cn2ccnc2)n1 | > 4 mM (inactive) |
| COc1ccc2cnn(-c3ccccc3)c(=O)c2c1OC | > 4 mM (inactive) |
| O=c1nc(N2CCOCC2)nc2n1CCO2 | > 4 mM (inactive) |
| Cc1cc(C)c(C(N)=O)c(=S)[nH]1 | > 4 mM (inactive) |
| CC(=O)NCC1OCCc2ccccc21 (centres undefined) | > 4 mM (inactive) |
| COc1ccc(-c2cc(=O)c3c(O)c(OC)c(O[C@H]4O[C@H](CO[C@@H]5O[C@@H](C)[C@H](O)[C@@H](O)[C@H]5O)[C@@H](O)[C@H](O)[C@H]4O)cc3o2)cc1 | > 4 mM (inactive) |
| COc1c2ccoc2cc2oc(=O)ccc12 | > 4 mM (inactive) |
| O=C(Oc1ccc(-c2nnco2)cc1)N1CCCCC1 | > 4 mM (inactive) |
| Cc1cc(=O)c2ccccc2n1CC(N)=O | > 4 mM (inactive) |
| CC1(C)CC2C1CCC1(C)OC2(C)CCC1O (centres undefined) | > 4 mM (inactive) |
| O=C1CSC(=Nc2ccc(Cl)cc2)N1 | > 4 mM (inactive) |
| CNC(=O)c1c(O)c2ccccc2[nH]c1=O | > 4 mM (inactive) |
| COc1ccccc1-c1noc(-c2ccco2)n1 | > 4 mM (inactive) |
| CCN1C(=O)c2c(C)nc3ccccc3c2C1=O | > 4 mM (inactive) |
| CS(=O)(=O)c1ccccc1C(=O)Nc1nccs1 | > 4 mM (inactive) |
| Cc1ccc(N2NC(=O)CC2=O)cc1C | > 4 mM (inactive) |
| NC(=O)CSc1nnc(-c2ccncc2)o1 | > 4 mM (inactive) |
| O=C(O)c1csc2ccccc12 | > 4 mM (inactive) |
| CN(C)c1ccc(C2CC(=O)CC(=O)C2)cc1 | > 4 mM (inactive) |
| O=C(O)CCC1NCC2CC1CN1CCCCC21 (centres undefined) | > 4 mM (inactive) |
| Cc1cc(C(=O)Nc2sc3c(c2C#N)CCC3)no1 | > 4 mM (inactive) |
| Cc1occc1C(=O)Nc1nnc(-c2ccncc2)s1 | > 4 mM (inactive) |

| SMILES | Kd |
| --- | --- |
| COC(=O)C[C@H]1C(C)(C)C(OC(C)=O)[C@]2(O)C=C3C(CC[C@]4(C)C3CC(=O)O[C@H]4c3ccoc3)C1(C)C2=O (some centres undefined) | > 4 mM (inactive) |
| NC1=NC(=O)/C(=C\c2cccc(C(=O)O)c2)S1 | > 4 mM (inactive) |
| Cc1ccccc1NC(=O)c1ocnc1C | > 4 mM (inactive) |
| CN(C)c1ccc(NC(=O)CC(C(=O)O)N(C)C)cc1 (centres undefined) | > 4 mM (inactive) |
| Nn1c(CN2CCCCC2)nc2ccccc2c1=O | > 4 mM (inactive) |
| S=c1[nH]nc(-c2cccnc2)n1Cc1ccccc1 | > 4 mM (inactive) |
| Cc1ccc(C(=O)N2CCC(C(=O)O)CC2)cc1 | > 4 mM (inactive) |
| COc1cc(N)ccc1NC(=O)c1cccs1 | > 4 mM (inactive) |
| CC(=O)Nc1ccc(S(=O)(=O)N2CCN=C2C)cc1 | > 4 mM (inactive) |
| O=C(O)C1(O)C[C@@H](O)C(O)[C@H](O)C1 (some centres undefined) | > 4 mM (inactive) |
| Cc1occc1C(=O)Nc1nnc(C(F)(F)F)s1 | > 4 mM (inactive) |
| OCC1CCN(c2ncccn2)CC1 | > 4 mM (inactive) |
| CC(C)=CCCC1(C)C=Cc2c(O)c3c(c(CC=C(C)C)c2O1)OC12C(=CCCC1C(C)(C)O[C@@]2(C/C=C(\C)C(=O)O)C(=O)O)C3=O (some centres undefined) | > 4 mM (inactive) |
| CC(O)C(=O)N/N=C/c1ccccc1 (centres undefined) | > 4 mM (inactive) |
| OCc1ccc(N2CCOCC2)cc1 | > 4 mM (inactive) |
| COc1cc(/C=C/C(=O)O)ccc1O | > 4 mM (inactive) |
| O=C(O)CCC(=O)Nc1nnc(C(F)(F)F)s1 | > 4 mM (inactive) |
| NC(=O)CSc1nnc2ccc(-c3ccco3)nn12 | > 4 mM (inactive) |
| Nc1ccc(CN2CCOCC2)cc1 | > 4 mM (inactive) |
| O=C(Nc1nc2c(s1)CCCC2)c1cccnc1 | > 4 mM (inactive) |
| Cc1oc(-c2ccccc2)cc1C(=O)O | > 4 mM (inactive) |
| COC(=O)c1c(C)cc(OC)cc1O | > 4 mM (inactive) |
| O=C(C1CCC(C(=O)N2CCCC2)CC1)N1CCCC1 (centres undefined) | > 4 mM (inactive) |
| Cn1nnc2cc(C(=O)NC3CCCCC3)ccc21 | > 4 mM (inactive) |

| SMILES | Kd |
| --- | --- |
| CCP(=O)(CC)c1cccc(C)c1 | > 4 mM (inactive) |
| Cc1cc(NC(=O)Cc2cccs2)no1 | > 4 mM (inactive) |
| CNCc1ccco1 | > 4 mM (inactive) |
| O=C(O)c1ccc(N2CCOCC2)cc1 | > 4 mM (inactive) |
| CC(=O)Nc1cnn(Cc2ccc(Br)cc2)c1 | > 4 mM (inactive) |
| C/C=C/COc1nc2c(c(=O)n(C)c(=O)n2C)n1C | > 4 mM (inactive) |
| C=C1C([C@]2(C)C(CC(=O)OC)[C@@](C)(COC(C)=O)OC(=O)C[C@@H]2OC(C)=O)[C@@H](OC=O)[C@H](OC(=O)C(OC(C)=O)C(C)CC)[C@@]2(C)[C@H](c3ccoc3)CC(=O)C12O (some centres undefined) | > 4 mM (inactive) |
| Cc1cc(/C=N/O)nc(=O)[nH]1 | > 4 mM (inactive) |
| Cc1ccc(S(=O)(=O)/N=C2\NC(=O)CS2)cc1 | > 4 mM (inactive) |
| COc1cc(OC)c(-c2c(OC)cc(OC)cc2OC)c(OC)c1 | > 4 mM (inactive) |
| CC(=O)c1ccc(N2C(=O)C(C(C)C)NC2=S)cc1 (centres undefined) | > 4 mM (inactive) |
| CNC(=O)C(=O)NCc1ccc(C)cc1 | > 4 mM (inactive) |
| O=C(O)CCC1=C2c3ccccc3CCN2C(=O)CC1 | > 4 mM (inactive) |
| CC1(C)Oc2ccc(N)cc2O1 | > 4 mM (inactive) |
| O=C1C2CCCCC2C(=O)N1Cc1cccnc1 (centres undefined) | > 4 mM (inactive) |
| Cn1ccc(NC(=S)NC2CCCC2)n1 | > 4 mM (inactive) |
| O=C(O)C1Cc2ccccc2O1 (centres undefined) | > 4 mM (inactive) |
| O=c1cc(-c2ccc(O)cc2)oc2cc(O)cc(O)c12 | > 4 mM (inactive) |
| COc1ccc(-c2cn[nH]c2N)c(OC)c1 | > 4 mM (inactive) |
| Cc1ccc2cc(C(=O)O)ccc2n1 | > 4 mM (inactive) |
| CC1=CC2C(CC1=O)C(C)=CCC2C(C)C (centres undefined) | > 4 mM (inactive) |
| c1ccc2[nH]c(CCn3cncn3)nc2c1 | > 4 mM (inactive) |
| O=c1cc(O)n(-c2ccc(F)cc2)c(=S)[nH]1 | > 4 mM (inactive) |
| CC(=O)Nc1ccc(Nc2nnc(C)c(=O)[nH]2)cc1 | > 4 mM (inactive) |

| SMILES | Kd |
| --- | --- |
| CS(=O)(=O)N1CCN(c2ccccc2F)CC1 | > 4 mM (inactive) |
| O=C(CC1NCCNC1=O)Nc1ccccc1 (centres undefined) | > 4 mM (inactive) |
| OC1(c2ccc(Cl)cc2)CCNCC1 | > 4 mM (inactive) |
| CC[C@@]1(O)C[C@H](O[C@H]2C[C@H](N(C)C)[C@H](O)[C@H](C)O2)c2c(cc3c(c2O)C(=O)c2c(O)cccc2C3=O)[C@H]1C(=O)OC | > 4 mM (inactive) |
| O=C(O)/C=C/C(=O)Nc1ccccc1C(F)(F)F | > 4 mM (inactive) |
| COc1cc2c(cc1OC)C1Cc3ccc(OC)c(OC)c3CN1CC2 (centres undefined) | > 4 mM (inactive) |
| Cc1ccccc1OCC(=O)O | > 4 mM (inactive) |
| COc1cc2cc3c4cc(OC)c(OC)cc4cc[n+]3c(C)c2cc1OC | > 4 mM (inactive) |
| Cc1cc(NC(=O)c2ocnc2C)no1 | > 4 mM (inactive) |
| O=c1cccc2n1C[C@H]1CNCC2C1 | > 4 mM (inactive) |
| Cc1csc2nc(=O)c3ccccc3n12 | > 4 mM (inactive) |
| Nc1nc2ccccc2n1CCN1CCCC1 | > 4 mM (inactive) |
| NC(=O)c1ccc(NC(=O)C2CC2)cc1 | > 4 mM (inactive) |
| O=C(Nc1nncs1)c1c(F)cccc1F | > 4 mM (inactive) |
| Nc1ncc2[nH]cnc2n1 | > 4 mM (inactive) |
| Cc1ccc(NC(=O)N2CCC(C(N)=O)CC2)cc1 | > 4 mM (inactive) |
| NC(=O)Cc1nc2ccccc2[nH]1 | > 4 mM (inactive) |
| O=C(CNC(=O)c1cccs1)NC1=NCCS1 | > 4 mM (inactive) |
| Cc1ccc(N2C(=O)CC(=O)NC2=O)cc1 | > 4 mM (inactive) |
| CN1CCC=C(C(=O)O)C1 | > 4 mM (inactive) |
| O=C1NC(=S)S/C1=C/c1ccncc1 | > 4 mM (inactive) |
| CC12CN(CC#N)CC(C)(CN(CC#N)C1)C2=O | > 4 mM (inactive) |
| CC(=O)Nc1ccc(C(=O)NC2=NCCS2)cc1 | > 4 mM (inactive) |
| CCOC(=O)Cn1cnc2sc3c(c2c1=O)CCC3 | > 4 mM (inactive) |

| SMILES | Kd |
| --- | --- |
| CCc1c(C(=O)Nc2ccncc2)csc1C | > 4 mM (inactive) |
| COc1ccc(-c2coc3cc(O)ccc3c2=O)c(OC)c1 | > 4 mM (inactive) |
| Cc1noc(C)c1C(=O)NC1=NCCS1 | > 4 mM (inactive) |
| CC(=O)N[C@@H](CC(=O)O)C(=O)N[C@@H](CCC(=O)O)C(=O)O (Ac-Asp-Glu-OH) | > 4 mM (inactive) |
| S=c1nc[nH]c2c1cnn2-c1ccccc1 | > 4 mM (inactive) |
| NCc1cc2ccccc2s1 | > 4 mM (inactive) |
| Nc1ncnc2c1ncn2C1C[C@H](O)[C@@H](CO)O1 (some centres undefined) | > 4 mM (inactive) |
| CN1C(=O)c2ccc(N3CCCC3)cc2C1=O | > 4 mM (inactive) |
| NC(=O)CS(=O)(=O)c1ccc2ccccc2c1 | > 4 mM (inactive) |
| CC(C)=CC(=O)Nc1ccccc1C(N)=O | > 4 mM (inactive) |
| CC1CN=C(Nc2ccccc2)S1 (centres undefined) | > 4 mM (inactive) |
| CCOC(=O)Cc1nc2ccccc2[nH]1 | > 4 mM (inactive) |
| O=c1cc(-c2ccc(O)cc2)[nH]c(=S)[nH]1 | > 4 mM (inactive) |
| COc1ccc(-c2c(C)n([O-])c(C)c(C)[n+]2=O)cc1 | > 4 mM (inactive) |
| O=c1[nH]c(=O)n(-c2ccc(F)cc2)c(O)c1/C=C1/C=CC=N1 | > 4 mM (inactive) |
| COC(=O)CSc1nc(N)cc(=O)[nH]1 | > 4 mM (inactive) |
| CC[C@H](CCC(C)[C@H]1CCC2C3CCC4C[C@@H](O)CC[C@]4(C)C3CC[C@@]21C)C(C)C (some centres undefined) | > 4 mM (inactive) |
| O=C(NCc1ccccc1F)c1cccs1 | > 4 mM (inactive) |
| O=C(Nc1ccon1)c1ccc(Br)o1 | > 4 mM (inactive) |
| O=C1C2C3CCC(O3)C2C(=O)N1c1ccccc1 (centres undefined) | > 4 mM (inactive) |
| CC1/C(=N/O)C[C@@H]2C[C@H]1C2(C)C (some centres undefined) | > 4 mM (inactive) |
| CC1=C2C(O)C(=O)OC3CC4C(C)(C)C(=O)C=C[C@]4(C)C(CC1)[C@]23C (some centres undefined) | > 4 mM (inactive) |
| O=C1CC(c2c[nH]c3ccccc23)C(=O)N1 (centres undefined) | > 4 mM (inactive) |
